Reference: patent US20250026742A1 (SUZHOU ARK BIOPHARMACEUTICAL CO., LTD., priority 2021, published 2025)
Where a name gives a salt, the structure may show the parent alone.

The molecules below were run against ATR kinase (Homo sapiens (Human), UniProt Q13535) (assay: ATR enzyme activity inhibition assay (HTRF)). Settings: p53 substrate, full-length ATR enzyme.
Format: biochemical
Protocol: The inhibitory ability to ATR kinase for selected compounds was tested by the HTRF (Homogeneous Time-Resolved Fluorescence). In the reaction system, After the substrate p53 is phosphorylated by ATR, the anti-phospho-p53-Eu that serves as an energy donor and specifically binds to the phosphorylation site on p53 is added. Then, the anti-GST-d2 as an energy acceptor that specifically binds to the GST tag carried on p53 is added. […] The IC50 of the sample to be tested can be obtained through graphing and calculation.
Prepare various buffer systems required for the experiment: • 1. […] Prepare detection buffer: Dilute each of the anti-phospho-p53-Eu cryptate (Cisbio, Cat #61P08KA) and anti-GST-d2 (Cisbio, Cat #61GSTDLB) to 1 unit using HTRF detection buffer (Cisbio, Cat #62SDBRDF).
Powdered compounds were dissolved in DMSO to from a stock solution at a concentration of 10 mM. The solution of compounds to be tested at a concentration of […] was performed a 3-fold dilution for 10 concentrations with DMSO. […] 5 μL of ATR was added to each well accordingly. Each well is incubated at 25° C. for 10 min, added with 5 μL of reaction substrate, incubated at 25° C. for 90 min and added with 10 μL of detection solution. […] The inhibition curves of the compounds were made by the four-parameter […] regression equation of XLfit software, and the inhibition rates of the compounds were calculated.

ATR kinase, sequence (Q13535 whole entry): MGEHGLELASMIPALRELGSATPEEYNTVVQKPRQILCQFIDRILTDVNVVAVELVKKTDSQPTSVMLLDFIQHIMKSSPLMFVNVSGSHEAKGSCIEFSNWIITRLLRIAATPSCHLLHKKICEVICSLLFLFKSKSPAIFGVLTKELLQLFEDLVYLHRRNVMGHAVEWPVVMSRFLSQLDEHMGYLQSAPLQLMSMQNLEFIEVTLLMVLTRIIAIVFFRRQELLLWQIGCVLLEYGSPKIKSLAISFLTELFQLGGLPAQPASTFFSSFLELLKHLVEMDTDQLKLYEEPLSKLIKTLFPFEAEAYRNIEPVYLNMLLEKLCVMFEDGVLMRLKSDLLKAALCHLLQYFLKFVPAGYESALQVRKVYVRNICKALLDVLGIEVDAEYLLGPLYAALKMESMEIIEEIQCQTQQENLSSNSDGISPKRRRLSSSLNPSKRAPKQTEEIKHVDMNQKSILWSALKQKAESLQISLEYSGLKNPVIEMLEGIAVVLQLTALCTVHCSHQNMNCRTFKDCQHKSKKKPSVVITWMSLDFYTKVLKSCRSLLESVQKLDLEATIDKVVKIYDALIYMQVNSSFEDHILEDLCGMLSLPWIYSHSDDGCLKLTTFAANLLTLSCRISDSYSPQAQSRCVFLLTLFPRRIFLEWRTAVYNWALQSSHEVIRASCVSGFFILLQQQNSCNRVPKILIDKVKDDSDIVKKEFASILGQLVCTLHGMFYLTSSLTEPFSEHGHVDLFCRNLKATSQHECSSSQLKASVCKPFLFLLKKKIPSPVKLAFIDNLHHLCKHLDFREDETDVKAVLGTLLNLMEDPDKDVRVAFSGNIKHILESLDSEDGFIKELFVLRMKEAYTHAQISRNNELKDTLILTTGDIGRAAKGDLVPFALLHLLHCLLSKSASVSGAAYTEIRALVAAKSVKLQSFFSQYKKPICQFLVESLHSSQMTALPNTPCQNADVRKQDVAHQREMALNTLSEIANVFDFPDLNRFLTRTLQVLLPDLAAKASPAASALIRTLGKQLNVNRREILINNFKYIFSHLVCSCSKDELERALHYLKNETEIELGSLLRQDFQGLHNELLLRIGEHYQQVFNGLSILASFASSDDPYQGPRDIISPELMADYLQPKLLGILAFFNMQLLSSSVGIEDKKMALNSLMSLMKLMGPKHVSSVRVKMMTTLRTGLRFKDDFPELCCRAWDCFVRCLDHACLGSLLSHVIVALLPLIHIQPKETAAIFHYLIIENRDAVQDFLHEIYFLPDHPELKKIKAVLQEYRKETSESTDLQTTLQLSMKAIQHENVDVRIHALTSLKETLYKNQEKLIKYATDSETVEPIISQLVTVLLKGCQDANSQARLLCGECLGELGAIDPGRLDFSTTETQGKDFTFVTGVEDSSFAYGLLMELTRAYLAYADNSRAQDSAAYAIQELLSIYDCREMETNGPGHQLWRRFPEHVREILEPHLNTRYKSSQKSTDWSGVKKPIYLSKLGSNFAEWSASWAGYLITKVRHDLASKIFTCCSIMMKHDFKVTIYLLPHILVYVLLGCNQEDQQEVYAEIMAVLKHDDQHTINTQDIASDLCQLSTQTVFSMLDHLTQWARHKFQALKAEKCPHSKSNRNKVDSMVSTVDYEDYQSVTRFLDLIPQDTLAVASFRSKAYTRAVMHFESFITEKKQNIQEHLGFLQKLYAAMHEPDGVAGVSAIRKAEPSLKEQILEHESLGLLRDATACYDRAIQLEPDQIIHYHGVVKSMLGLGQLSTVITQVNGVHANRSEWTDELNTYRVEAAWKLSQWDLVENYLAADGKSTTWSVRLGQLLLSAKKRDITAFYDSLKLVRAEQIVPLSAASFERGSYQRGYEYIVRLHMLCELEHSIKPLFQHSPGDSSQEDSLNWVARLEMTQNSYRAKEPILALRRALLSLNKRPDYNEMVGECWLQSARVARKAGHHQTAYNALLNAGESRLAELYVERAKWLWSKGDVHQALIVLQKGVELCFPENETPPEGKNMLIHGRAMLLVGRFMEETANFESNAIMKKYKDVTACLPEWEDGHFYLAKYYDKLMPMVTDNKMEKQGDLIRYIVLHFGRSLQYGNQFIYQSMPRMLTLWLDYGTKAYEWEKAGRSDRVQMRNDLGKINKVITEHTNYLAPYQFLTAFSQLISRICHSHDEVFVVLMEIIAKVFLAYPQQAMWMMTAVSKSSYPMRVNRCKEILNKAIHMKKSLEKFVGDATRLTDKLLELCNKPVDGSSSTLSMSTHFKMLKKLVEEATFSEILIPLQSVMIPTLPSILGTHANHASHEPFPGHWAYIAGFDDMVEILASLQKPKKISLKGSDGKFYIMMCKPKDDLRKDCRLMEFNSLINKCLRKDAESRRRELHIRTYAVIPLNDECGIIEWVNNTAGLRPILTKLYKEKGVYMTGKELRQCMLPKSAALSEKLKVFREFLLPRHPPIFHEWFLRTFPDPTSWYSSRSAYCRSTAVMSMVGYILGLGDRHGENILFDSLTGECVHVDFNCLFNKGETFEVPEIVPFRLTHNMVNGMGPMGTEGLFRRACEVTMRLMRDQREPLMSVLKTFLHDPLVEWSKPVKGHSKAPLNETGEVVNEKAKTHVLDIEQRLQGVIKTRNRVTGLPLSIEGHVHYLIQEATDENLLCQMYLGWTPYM
ATR kinase, sequence (Q8WXE1 whole entry partner): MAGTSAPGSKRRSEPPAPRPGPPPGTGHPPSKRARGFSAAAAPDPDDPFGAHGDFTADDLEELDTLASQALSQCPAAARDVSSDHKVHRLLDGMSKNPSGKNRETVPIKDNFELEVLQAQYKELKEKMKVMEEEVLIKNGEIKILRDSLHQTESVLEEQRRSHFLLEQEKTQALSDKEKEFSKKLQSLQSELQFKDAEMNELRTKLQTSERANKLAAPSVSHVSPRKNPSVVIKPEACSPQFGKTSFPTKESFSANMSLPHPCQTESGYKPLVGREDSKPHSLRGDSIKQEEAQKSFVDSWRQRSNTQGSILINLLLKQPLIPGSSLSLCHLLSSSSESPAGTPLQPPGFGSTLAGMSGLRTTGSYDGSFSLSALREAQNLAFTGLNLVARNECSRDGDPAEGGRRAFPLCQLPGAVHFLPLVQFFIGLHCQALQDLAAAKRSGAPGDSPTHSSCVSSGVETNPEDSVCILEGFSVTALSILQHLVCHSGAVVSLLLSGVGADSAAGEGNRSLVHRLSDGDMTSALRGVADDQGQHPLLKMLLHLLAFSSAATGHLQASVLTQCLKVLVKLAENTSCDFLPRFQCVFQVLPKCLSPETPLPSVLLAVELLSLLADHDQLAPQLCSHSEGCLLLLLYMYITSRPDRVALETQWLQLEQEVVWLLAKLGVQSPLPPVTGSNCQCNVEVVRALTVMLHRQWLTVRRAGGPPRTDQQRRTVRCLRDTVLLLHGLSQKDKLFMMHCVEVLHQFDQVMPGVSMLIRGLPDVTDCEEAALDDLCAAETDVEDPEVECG

Point of comparison: CNCc1ccc(-c2cc(-c3nc(-c4ccc(S(=N)(=O)C(C)C)cc4)cnc3N)on2)cc1 (stereo not drawn) [Example 2, (4-(5-amino-6-(3-(4-((methylamino)methyl)phenyl)isoxazol-5-yl)pyrazin-2-yl)phenyl)(imino)(isopropyl)-λ^6-sulfoxide], IC50 2.79 nM. Against it:
- CNC(=N)Nc1ccc(-c2cc(-c3nc(-c4ccc(S(=O)(=O)C(C)C)cc4)cnc3N)on2)nc1 [Example 19, 1-(6-(5-(3-amino-6-(4-(isopropylsulfonyl)phenyl)pyrazin-2-yl)isoxazol-3-yl)pyridin-3-yl)-3-methylguanidine dihydrochloride] — 2.2-fold lower, 1.26 nM
- CC(C)S(=O)(=O)c1ccc(-c2cnc(N)c(-c3cc(-c4ccc(C(=O)NC(=N)N)cc4)no3)n2)cc1 [Example 26, dihydrochloride] — within 1.5-fold, 2.06 nM
- CC(C)S(=O)(=O)c1ccc(-c2cnc(N)c(-c3cc(-c4ccc5[nH]c(=O)[nH]c5c4)no3)n2)cc1 [Example 21, 5-(5-(3-amino-6-(4-(isopropylsulfonyl)phenyl)pyrazin-2-yl)isoxazol-3-yl)-1,3-dihydro-2H-benzo[d]imidazol-2-one] — 2.1-fold lower, 1.31 nM
- CC(C)S(=O)(=O)c1ccc(-c2cnc(N)c(-c3cc(-c4ccc(NC(=N)N)cc4)no3)n2)cc1 [Example 16, 1-(4-(5-(3-amino-6-(4-(isopropylsulfonyl)phenyl)pyrazin-2-yl)isoxazol-3-yl)phenyl)guanidine] — 3.5-fold higher, 9.74 nM
- CC(C)S(=O)(=O)c1ccc(-c2cnc(N)c(-c3cc(-c4ccc(CNC(=N)N)cc4)no3)n2)cc1 [Example 1, 1-(4-(5-(3-amino-6-(4-(isopropylsulfonyl)phenyl)pyrazin-2-yl)isoxazol-3-yl)benzyl)guanidine dihydrochloride] — 2.9-fold lower, 0.97 nM
- CC(C)S(=N)(=O)c1ccc(-c2cnc(N)c(-c3cc(-c4ccc5[nH]c(=O)[nH]c5c4)no3)n2)cc1 (stereo not drawn) [Example 22, 5-(5-(3-amino-6-(4-(propan-2-ylsulfonimido)phenyl)pyrazin-2-yl)isoxazol-3-yl)-1,3-dihydro-benzimidazol-2-one dihydrochloride] — 2.3-fold lower, 1.21 nM
- N=C(N)NCc1ccc(-c2cc(-c3nc(-c4ccc5c(c4)CCS5(=O)=O)cnc3N)on2)cc1 [Example 27, 1-(4-(5-(3-amino)-6-(1,1-dioxo-2,3-dihydrobenzo[b]thiophen-5-yl)pyrazin-2-yl)isoxazol-3-yl)benzyl)guanidine dihydrochloride] — 3.7-fold lower, 0.75 nM
- CCNC(=O)NCc1ccc(-c2cc(-c3nc(-c4ccc(S(=O)(=O)C(C)C)cc4)cnc3N)on2)cc1 [Example 6, 1-(4-(5-(3-amino-6-(4-(isopropylsulfonyl)phenyl)pyrazin-2-yl)isoxazol-3-yl)benzyl)-3-ethylurea] — within 1.5-fold, 2.9 nM
- CNCc1ccc(-c2nnc(-c3nc(-c4ccc5c(c4)C(F)C(C)(C)S5(=O)=O)cnc3N)s2)cc1 (stereo not drawn) [Example 37, 5-(5-amino-6-(5-(4-((methylamino)methyl)phenyl)-1,3,4-thiadiazol-2-yl)pyrazin-2-yl)-3-fluoro-2,2-dimethyl-2,3-dihydrobenzo[b]thiophene 1,1-dioxide] — 3.6-fold lower, 0.77 nM
- CC(C)S(=O)(=O)c1ccc(-c2cnc(N)c(-c3cc(-c4ccc5c(c4)CNC5=O)no3)n2)cc1 [Example 31] — within 1.5-fold, 4 nM
- CNC(=N)Nc1ccc(-c2cc(-c3nc(-c4ccc(S(=O)(=O)C(C)C)cc4)cnc3N)on2)c(F)c1 [Example 20, 1-(4-(5-(3-amino-6-(4-(isopropylsulfonyl)phenyl)pyrazin-2-yl)isoxazol-3-yl)-3-fluorophenyl)-3-methylguanidine dihydrochloride] — 1.5-fold lower, 1.81 nM
- CCNC(=N)Nc1ccc(-c2cc(-c3nc(-c4ccc(S(=O)(=O)C(C)C)cc4)cnc3N)on2)cc1 [Example 18, 1-(4-(5-(3-amino-6-(4-(isopropylsulfonyl)phenyl)pyrazin-2-yl)isoxazol-3-yl)phenyl)-3-ethylguanidine dihydrochloride] — 2.4-fold lower, 1.16 nM
- CN=S(=O)(c1ccc(-c2cnc(N)c(-c3cc(-c4ccc(CNC(=N)N)cc4)no3)n2)cc1)C(C)C (stereo not drawn) [Example 13, 1-(4-(5-(3-amino-6-(4-(N-methylpropan-2-yl-sulfonimido)phenyl)pyrazin-2-yl)isoxazol-3-yl)benzyl)guanidine dihydrochloride] — 1.7-fold lower, 1.68 nM
- CNC(=O)Nc1ccc(-c2cc(-c3nc(-c4ccc(S(=O)(=O)C(C)C)cc4)cnc3N)on2)cc1 [Example 14, 1-(4-(5-(3-amino-6-(4-(isopropylsulfonyl)phenyl)pyrazin-2-yl)isoxazol-3-yl)phenyl)-3-methylurea] — 2-fold lower, 1.42 nM
- CNCc1ccc(-c2cc(-c3nc(-c4ccc5c(c4)C(F)C(C)(C)S5(=O)=O)cnc3N)no2)cc1 (stereo not drawn) [Example 34, 5-(5-amino-6-(5-(4-((methylamino)methyl)phenyl)isoxazol-3-yl)pyrazin-2-yl)-3-fluoro-2,2-dimethyl-2,3-dihydrobenzo[b]thiophene 1,1-dioxide] — 3-fold lower, 0.92 nM
- N=C(N)NCc1ccc(-c2cc(-c3nc(-c4ccc(S(=O)(=O)C5CC5)cc4)cnc3N)on2)cc1 [Example 23, 1-(4-(5-(3-amino-6-(4-(cyclopropylsulfonyl)phenyl)pyrazin-2-yl)isoxazol-3-yl)benzyl)guanidine dihydrochloride] — 4-fold lower, 0.7 nM
- CC(C)S(=O)(=O)c1ccc(-c2cnc(N)c(-c3cc(-c4ccc(CNC(=N)N)c(F)c4)no3)n2)cc1 [Example 24, 1-(4-(5-(3-amino-6-(4-(isopropylsulfonyl)phenyl)pyrazin-2-yl)isoxazol-3-yl)-2-fluorobenzyl)guanidine dihydrochloride] — 2.6-fold lower, 1.08 nM
- CC(C)S(=O)(=O)c1ccc(-c2cnc(N)c(-c3cc(-c4ccc(CNS(N)(=O)=O)cc4)no3)n2)cc1 [Example 8, 3-(3-(4-((aminosulfonyl)aminomethylene)phenyl)isoxazol-5-yl)-5-(4-(isopropylsulfonyl)phenyl)pyrazin-2-amine] — within 1.5-fold, 3.64 nM
- CNC(=O)NCc1ccc(-c2cc(-c3nc(-c4ccc(S(=O)(=O)C(C)C)cc4)cnc3N)on2)cc1 [Example 7, 1-(4-(5-(3-amino-6-(4-(isopropylsulfonyl)phenyl)pyrazin-2-yl)isoxazol-3-yl)benzyl)-3-methylurea] — 2.7-fold lower, 1.04 nM
- CN(C)S(=O)(=O)c1ccc(-c2cnc(N)c(-c3cc(-c4ccc(CNC(=N)N)cc4)no3)n2)cc1 [Example 10, 4-(5-amino-6-(3-(4-(guanidinomethyl)phenyl)isoxazol-5-yl)pyrazin-2-yl)-N,N-dimethylbenzenesulfonamide dihydrochloride] — 1.6-fold lower, 1.75 nM
- CC(C)S(=O)(=O)c1ccc(-c2cnc(N)c(-c3cc(-c4ccc(CNC(=N)N)cc4F)no3)n2)cc1 [Example 4, 1-(4-(5-(3-amino-6-(4-isopropylsulfonyl)phenyl)pyrazin-2-yl)isoxazol-3-yl)-3-fluorobenzyl)guanidine dihydrochloride] — 3.4-fold lower, 0.83 nM
- CC(=N)NCc1ccc(-c2cc(-c3nc(-c4ccc(S(=O)(=O)C(C)C)cc4)cnc3N)on2)cc1 [Example 28, N-(4-(5-(3-amino-6-(4-(isopropylsulfonyl)phenyl)pyrazin-2-yl)isoxazol-3-yl)benzyl)acetamidine dihydrochloride] — 2.2-fold lower, 1.29 nM
- CN(C)C(=O)c1ccc(-c2cnc(N)c(-c3cc(-c4ccc(CNC(=N)N)cc4)no3)n2)cc1 [Example 25, 4-(5-amino-6-(3-(4-(guanidinomethyl)phenyl)isoxazol-5-yl)pyrazin-2-yl)-N,N-dimethylbenzamide dihydrochloride] — within 1.5-fold, 1.98 nM
- CC(C)S(=O)(=O)c1ccc(-c2cnc(N)c(-c3cc(-c4ccc(CNC(=O)NC5CC5)cc4)no3)n2)cc1 [Example 5, 1-(4-(5-(3-amino-6-(4-(isopropylsulfonyl)phenyl)pyrazin-2-yl)isoxazol-3-yl)benzyl)-3-cyclopropylurea] — within 1.5-fold, 2.32 nM
- CC(C)S(=O)(=O)c1ccc(-c2cnc(N)c(-c3cc(-c4ccc(CNC(=N)N)cc4C(F)(F)F)no3)n2)cc1 [Example 30, 1-(4-(5-(3-amino-6-(4-(isopropylsulfonyl)phenyl)pyrazin-2-yl)isoxazol-3-yl)-3-(trifluoromethyl)benzyl)guanidine dihydrochloride] — within 1.5-fold, 3.35 nM
- CN1CCC(NCc2ccc(-c3nnc(-c4nc(-c5ccc6c(c5)C(F)C(C)(C)S6(=O)=O)cnc4N)o3)cc2)CC1 (stereo not drawn) [Example 36] — 4.9-fold lower, 0.57 nM
- CC(C)S(=O)(=O)c1ccc(-c2cnc(N)c(-c3cc(-c4ccc5[nH]nnc5c4)no3)n2)cc1 [Example 3, 3-(3-(1H-benzo[d][1,2,3]triazol-5-yl)isoxazol-5-yl)-5-(4-(isopropylsulfonyl)phenyl)pyrazin-2-amine] — 1.7-fold lower, 1.6 nM
- CNC(=N)Nc1ccc(-c2cc(-c3nc(-c4ccc(S(=O)(=O)C(C)C)cc4)cnc3N)on2)cc1 [Example 17, 1-(4-(5-(3-amino-6-(4-(isopropylsulfonyl)phenyl)pyrazin-2-yl)isoxazol-3-yl)phenyl)-3-methylguanidine dihydrochloride] — 3-fold lower, 0.93 nM
- (R)-5-(5-amino-6-(3-(4-((methylamino)methyl)phenyl)isoxazol-5-yl)pyrazin-2-yl)-3-fluoro-2,2-dimethyl-2,3-dihydrobenzo[b]thiophene 1,1-dioxide or (S)-5-(5-amino-6-(3-(4-((methylamino)methyl)phenyl)isoxazol-5-yl)pyrazin-2-yl)-3-fluoro-2,2-dimethyl-2,3-dihydrobenzo[b]thiophene 1,1-dioxide [Example 35-1 or 35-2] — 6.8-fold lower, 0.41 nM
